# From patent US8183243B2, “Melanocortin receptor agonists” (LG Life Sciences Ltd., priority 2008, dated 2012)
# Molecular target: T1, MC4R (Homo sapiens, UniProt P32245)
# T1 construct: expressed in transfected cells; host or cells: HEK (Human Embryonic Kidney) permanent expression cell line HEK MC4R-Luc, co-expressing CRE-luciferase
# Assay: MCR agonistic activity (luciferase assay / cAMP accumulation assay) on MC4R
# Format: cell-based
# Conditions: HEK cell lines expressing MC4R; method A (CRE-luciferase) or B (cAMP accumulation), not said which; read-out: EC50 value, agonistic activity to MC4R (range per group of Examples)
# How it was run: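 HEK cells stably expressing MC4R with a CRE-luciferase reporter treated 5 hours at 37 °C with serially diluted agonist (≤1% DMSO); luminescence expressed relative to 10 nM NDP-MSH, EC50 at half-maximal signal. Alternatively, cAMP measured after 30 minutes with compound plus 500 μM IBMX by [3H]-cAMP competition binding.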
# T1 sequence (P32245 whole entry, species assumed): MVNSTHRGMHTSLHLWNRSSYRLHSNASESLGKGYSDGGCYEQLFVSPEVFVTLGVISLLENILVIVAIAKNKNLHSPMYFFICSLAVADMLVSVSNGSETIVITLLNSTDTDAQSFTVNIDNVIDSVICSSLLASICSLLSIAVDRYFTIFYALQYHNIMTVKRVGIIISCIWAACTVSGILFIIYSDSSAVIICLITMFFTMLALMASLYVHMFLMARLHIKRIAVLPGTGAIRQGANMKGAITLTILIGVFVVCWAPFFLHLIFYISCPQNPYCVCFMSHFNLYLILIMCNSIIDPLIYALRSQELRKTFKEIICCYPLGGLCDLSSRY
row,SMILES,EC50 [nM]
1,"CN1CCN(C(=O)[C@@H]2C[C@@H](N(C(=O)[C@@H]3CCCO3)[C@H]3CC[C@@H](C)CC3)CN2C(=O)[C@@H]2CN(C(C)(C)C)C[C@H]2c2ccc(Cl)cc2)CC1 [Example 76, (2S)-N-{(3R,5S)-1-{[(3S,4R)-1-tert-butyl-4-(4-chlorophenyl)pyrrolidin-3-yl]carbonyl}-5-[(4-methylpiperazin-1-yl)carbonyl]pyrrolidin-3-yl}-N-(cis-4-methylcyclohexyl)tetrahydrofuran-2-carboxamide]",100 to 1000
2,"CN1CCN(C(=O)[C@@H]2C[C@H](N(C(=O)[C@@H]3CCCO3)c3ccc(F)cc3F)CN2C(=O)[C@@H]2CN(C(C)(C)C)C[C@H]2c2ccc(Cl)cc2)CC1 [Example 77, (2S)-N-{(3S,5S)-1-{[(3S,4R)-1-tert-butyl-4-(4-chlorophenyl)pyrrolidin-3-yl]carbonyl}-5-[(4-methylpiperazin-1-yl)carbonyl]pyrrolidin-3-yl}-N-(2,4-difluorophenyl)tetrahydrofuran-2-carboxamide]",10 to 100
3,"CC(C)C(=O)N(c1ccc(F)cc1F)[C@H]1C[C@@H](C(=O)N2CCNCC2)N(C(=O)[C@@H]2CN(C(C)(C)C)C[C@H]2c2ccc(Cl)cc2)C1 [Example 78, N-[(3S,5S)-1-{[(3S,4R)-1-tert-butyl-4-(4-chlorophenyl)pyrrolidin-3-yl]carbonyl}-5-(piperazin-1-ylcarbonyl)pyrrolidin-3-yl]-N-(2,4-difluorophenyl)-2-methylpropanamide]",0.1 to 10
4,"CN1CCN(C(=O)[C@@H]2C[C@H](N(C(=O)C(C)(C)C)c3ccc(F)cc3F)CN2C(=O)[C@@H]2CN(C(C)(C)C)C[C@H]2c2ccc(Cl)cc2)CC1 [Example 80, N-{(3S,5S)-1-{[(3S,4R)-1-tert-butyl-4-(4-chlorophenyl)pyrrolidin-3-yl]carbonyl}-5-[(4-methylpiperazin-1-yl)carbonyl]pyrrolidin-3-yl}-N-(2,4-difluorophenyl)-2,2-dimethylpropanamide]",0.1 to 10
5,CC(C)(C)C(=O)N(c1ccc(F)cc1F)[C@H]1C[C@@H](C(=O)N2CCNCC2)N(C(=O)[C@@H]2CN(C(C)(C)C)C[C@H]2c2ccc(Cl)cc2)C1 [Example 81],0.1 to 10
6,"CN1CCN(C(=O)[C@@H]2C[C@H](N(C(=O)C(C)(C)C)c3ccc(F)cc3F)CN2C(=O)[C@@H]2CN(C(C)(C)C)C[C@H]2c2ccc(F)cc2F)CC1 [Example 82, N-{(3S,5S)-1-{[(3S,4R)-1-tert-butyl-4-(2,4-difluorophenyl)pyrrolidin-3-yl]carbonyl}-5-[(4-methylpiperazin-1-yl)carbonyl]pyrrolidin-3-yl}-N-(2,4-difluorophenyl)-2,2-dimethylpropanamide]",0.1 to 10
7,"CN1CCN(C(=O)[C@@H]2C[C@H](N(C(=O)c3ccco3)c3ccc(F)cc3F)CN2C(=O)[C@@H]2CN(C(C)(C)C)C[C@H]2c2ccc(Cl)cc2)CC1 [Example 83, N-{(3S,5S)-1-{[(3S,4R)-1-tert-butyl-4-(4-chlorophenyl)pyrrolidin-3-yl]carbonyl}-5-[(4-methylpiperazin-1-yl)carbonyl]pyrrolidin-3-yl}-N-(2,4-difluorophenyl)-2-furamide]",10 to 100
